According to patent US20250269093A1, “METHODS OF ENHANCING ANTIMICROBIAL EFFICACY OF LOCAL ANESTHETICS” (Chinook Contract Research Inc., priority 2023, published 2025):
Counter-ions that a name gives are not always drawn. Like-named read-outs stand apart in the source and are kept apart here.

Experiments:
E. faecalis ATCC 51575 = test: Broth microdilution assay (MIC); type: cell-based, Enterococcus faecalis; conditions: for MIC: broth microdilution, 16-24 hours at 37° C.; for MIC +1 mg/mL LD: titrated in a constant concentration of 1 mg/mL lidocaine base
Protocol: (§1) Broth Microdilution Assay: A stock solution of each test article was serially diluted in a 96-well plate for a final volume of 0.1 mL per well. […] Turbidity was assessed after 16-24 hours at 37° C. (100 rpm).
(§2) Incubated at 37° C. at 200 rpm for approximately 2 hours to fully dissolve the powder. Filter sterilized.
(§3) Prepared a 2× stock of lidocaine HCl by dissolving 500 mg per 10 mL OSB (=50 mg/mL). Filter sterilized.
(§4) Serially diluted (2-fold series) the contents of rows B to G: Removed 100 μL from row B to row C and mixed by pipetting up and down at least 3 times. Discarded the tips.
(§5) For bacteria: Mixed 10 μL O/N with 990 μL OSB for ˜10^7 CFU/mL, then mixed 100 μL of the ˜10^7 CFU/mL culture with 9.90 mL BGM for ˜10^5 CFU/mL. • b. For yeast: Mixed 100 μL O/N with 9.90 mL BGM for ˜10^5 CFU/mL.
(§6) Immediately poured the ˜10^5 CFU/mL inoculum into a sterile reagent reservoir and used a multichannel pipettor to aliquot 100 μL into each well of the 96-well plates, excluding row H. Mixed by pipetting up and down at least 3 times. Added uninoculated BGM to row H.
(§7) Sealed the plates in sandwich bags and incubated at 37±1° C. for 16-24 hours (100 rpm).
(§8) Visually scored for growth, which appeared as turbidity or as a deposit of cells at the bottom of a well.
(§9) Determined the MIC (minimum inhibitory concentration) for each organism. The MIC was defined as the minimum concentration that inhibited growth of the organism.
(§10) MIC determination from Broth Microdilution: MIC results were determined following the overnight incubation of the broth microdilution plates. Ensured that the SC wells were free of growth and that the GC wells were positive for growth. To determine the minimum inhibitory concentration (MIC) values, checked for turbidity in the wells of the challenge plate and scored. The MIC was defined as the minimum concentration that inhibited visible growth of the organism.

P. aeruginosa ATCC 15442 = test: Broth microdilution assay (MIC); type: cell-based, Pseudomonas aeruginosa; conditions: for MIC: broth microdilution, 16-24 hours at 37° C.; for MIC +1 mg/mL LD: titrated in a constant concentration of 1 mg/mL lidocaine base
Protocol: as §1, §2, §3, §4, §5, §6, §7, §8, §9, §10

[1] = system: S. epidermidis ATCC 35984; test: Broth microdilution assay (MIC); type: cell-based, Staphylococcus epidermidis; conditions: for MIC: broth microdilution, 16-24 hours at 37° C.; for MIC +1 mg/mL LD: titrated in a constant concentration of 1 mg/mL lidocaine base
Protocol: as §1, §2, §3, §4, §5, §6, §7, §8, §9, §10

E. coli ATCC 25922 [2] = test: Broth microdilution assay (MIC); type: cell-based, Escherichia coli; conditions: for MIC: broth microdilution, 16-24 hours at 37° C.; for MIC +1 mg/mL LD: titrated in a constant concentration of 1 mg/mL lidocaine base
Protocol: as §1, §2, §3, §4, §5, §6, §7, §8, §9, §10

C. albicans ATCC 10231 = test: Broth microdilution assay (MIC); type: cell-based, Candida albicans; conditions: for MIC: broth microdilution, 16-24 hours at 37° C.; for MIC +1 mg/mL LD: titrated in a constant concentration of 1 mg/mL lidocaine base
Protocol: as §1, §2, §3, §4, §5, §6, §7, §8, §9, §10

P. mirabilis ATCC 29906 = test: Broth microdilution assay (MIC); type: cell-based, Proteus mirabilis; conditions: for MIC: broth microdilution, 16-24 hours at 37° C.; for MIC +1 mg/mL LD: titrated in a constant concentration of 1 mg/mL lidocaine base
Protocol: as §1, §2, §3, §4, §5, §6, §7, §8, §9, §10

[3] = system: all seven tested organisms; test: Broth microdilution assay (MIC), summary over the panel; type: cell-based; conditions: for MIC (plus lidocaine base): all seven organisms, constant concentration of 1 mg/mL lidocaine base
Protocol: as §1
Prepared a 2× stock solution of lidocaine by dissolving 20 mg of free-base lidocaine per 10 mL of OSB (=2 mg/mL). Incubated at 37° C. at 200 rpm for approximately 2 hours to fully dissolve the powder. Filter sterilized.
as §3
Prepared 2× stock (=8% v/v) of DMSO or NMP by mixing 800 μL of either with 9.2 mL of OSB or with OSB plus 2 mg/mL lidocaine base.
Aliquoted 200 μL of the 2× stock of LD-HCl, LD base, DMSO, NMP, DMSO+LD base, or NMP+LD base into wells B1-2, B3-4, B5-6, B7-8, B9-10, or B11-12, respectively.
as §4, §5, §6, §7, §8, §9
MIC determination from Broth Microdilution: MIC results were determined following the overnight incubation of the broth microdilution plates. […] To determine the minimum inhibitory concentration (MIC) values, checked for turbidity in the wells of the challenge plate and scored. […]

S. aureus ATCC 29213 [4] = test: Broth microdilution assay (MIC); type: cell-based, Staphylococcus aureus; conditions: for MIC: broth microdilution, 16-24 hours at 37° C.; for MIC +1 mg/mL LD: titrated in a constant concentration of 1 mg/mL lidocaine base
Protocol: as §1, §2, §3, §4, §5, §6, §7, §8, §9, §10

E. coli ATCC 25922 [5] = conditions: cited from earlier work
S. aureus ATCC 29213 [6] = conditions: cited from earlier work
P. aeruginosa ATCC 27853 = conditions: cited from earlier work

Compound	MIC (E. faecalis ATCC 51575)	MIC +1 mg/mL LD (E. faecalis ATCC 51575)	MIC (P. aeruginosa ATCC 15442)	MIC +1 mg/mL LD (P. aeruginosa ATCC 15442)	MIC [1]	MIC +1 mg/mL LD [1]	MIC (E. coli ATCC 25922 [2])	MIC +1 mg/mL LD (E. coli ATCC 25922 [2])	MIC (C. albicans ATCC 10231)	MIC +1 mg/mL LD (C. albicans ATCC 10231)	MIC (P. mirabilis ATCC 29906)	MIC +1 mg/mL LD (P. mirabilis ATCC 29906)	MIC (plus lidocaine base) [3]	MIC (S. aureus ATCC 29213 [4])	MIC +1 mg/mL LD (S. aureus ATCC 29213 [4])	further results
C[S+](C)[O-] [DMSO, Dimethyl Sulfoxide]	>4.00 % v/v	>4.00 % v/v	>4.00 % v/v	>4.00 % v/v	>4.00 % v/v	>4.00 % v/v	>4.00 % v/v	>4.00 % v/v	>4.00 % v/v	>4.00 % v/v	>4.00 % v/v	>4.00 % v/v	> 4 % v/v	>4.00 % v/v	>4.00 % v/v	–
CCN(CC)CC(=O)Nc1c(C)cccc1C [LD-B, Free base lidocaine]	>1.00 mg/mL	–	>1.00 mg/mL	–	>1.00 mg/mL	–	>1.00 mg/mL	–	>1.00 mg/mL	–	>1.00 mg/mL	–	–	>1.00 mg/mL	–	–
CCN(CC)CC(=O)Nc1c(C)cccc1C [LD-HCl, Lidocaine hydrochloride]	–	–	–	–	–	–	–	–	–	–	–	–	–	–	–	MIC (published literature) (E. coli ATCC 25922 [5]): 5.00 mg/mL; MIC (E. faecalis ATCC 51575; Enterococcus faecalis, ATCC51575, read-out: MIC): 25 mg/mL; MIC (P. aeruginosa ATCC 15442; Pseudomonas aeruginosa, ATCC15442, read-out: MIC): 25 mg/mL; MIC (published literature) (S. aureus ATCC 29213 [6]): 20.0 mg/mL; MIC ([1]; Staphylococcus epidermidis, ATCC35984, read-out: MIC): 25 mg/mL; MIC (E. coli ATCC 25922 [2]; Escherichia coli, ATCC25922, read-out: MIC): 6.25 mg/mL; MIC (C. albicans ATCC 10231; Candida albicans, ATCC10231, read-out: MIC): 12.5 mg/mL; MIC (P. mirabilis ATCC 29906; Proteus mirabilis, ATCC29906, read-out: MIC): 12.5 mg/mL; MIC (S. aureus ATCC 29213 [4]; Staphylococcus aureus, ATCC29213, read-out: MIC): 12.5 mg/mL; MIC (published literature) (P. aeruginosa ATCC 27853): > 20.0 mg/mL
CN1CCCC1=O [NMP, n-methyl-2-pyrrolidone]	4.00 % v/v	4.00 % v/v	4.00 % v/v	4.00 % v/v	4.00 % v/v	4.00 % v/v	4.00 % v/v	4.00 % v/v	4.00 % v/v	4.00 % v/v	4.00 % v/v	4.00 % v/v	4 % v/v	4.00 % v/v	4.00 % v/v	MIC ([3]; for all seven tested organisms, maximum challenge concentration 4% v/v): 4 % v/v
